Reference: patent US20250312416A1, “METHOD AND PHARMACEUTICAL COMPOSITION FOR CARTILAGE REGENERATION” (FAR EASTERN MEMORIAL HOSPITAL, priority 2024, published 2025)
“Also recorded” adds a separate entry of the source.

Tested on: clinical-grade ADSCs
Assay: Real-time PCR of chondrogenic genes in ADSCs
Format: cell-based, human
Method: Real-time PCR analysis was conducted on day 7 for CXCL12/CXCL14 peptides treated ADSCs, evaluating the expression of COMP, SOX9, COL2A1, ACAN, ITGB1, and SOSTDC1 genes. Cells were harvested, and RNA extraction was performed using a LightCycler® (Roche Applied Science). The fold change in gene expression on the y-axis was calculated relative to the same gene expression in untreated chondrocytes. Statistical analysis was conducted using one-way ANOVA. Significance levels are denoted as follows: * p<0.05, ** p<0.01, *** p<0.001, and **** p<0.0001 for comparisons between PBS treatments and the untreated group.
Real-time PCR analysis was performed on day 7 for ADSCs treated with CXCR4 agonists, assessing the expression of COMP, SOX9, COL2A1, ACAN, ITGB1, CXCL14, and SOSTIC1 genes. Cellular harvest, RNA extraction, and gene expression quantification were conducted using a LightCycler® (Roche Applied Science). The fold change in gene expression on the y-axis was calculated relative to the same gene expression in untreated chondrocytes. Statistical analysis was executed through one-way ANOVA. Significance levels are represented as follows: * p<0.05, ** p<0.01, *** p<0.001, and **** p<0.0001, indicating the significance of comparisons between PBS treatments and the untreated group.
Alcian blue staining was used to assess the chondrogenic differentiation of ADSC pellets. […] Treatment with CXCL14-PM1, CXCL14-PM2, CXCL14-PM3, and CXCR4-PM1 was sufficient to enhance the expression of chondrogenic genes in ADSCs. On day 7, real-time PCR was performed to analyze the expression of key chondrogenic markers, including SOX9, COL2A1, COMP, ACAN, ITGB1, CXCL14, and CXCR4, in ADSCs treated with these modified peptides. ADSCs were exposed to distinct peptide modifications derived from CXCL12, CXCL14, and CXCR4 at a concentration of 10 ng for a one-day treatment, after which the medium was replaced with fresh peptide-free medium. At the end of the treatment period, RNA was extracted to evaluate the expression levels of chondrogenesis-related cytokine genes. Gene expression quantification was performed using a LightCycler system (Roche Applied Science), and fold changes were calculated relative to untreated control ADSCs. […] FIG. 16(D) provides a summary of the results for alanine substitution with positively or negatively charged amino acids in CXCL12, CXCL14, and CXCR4 peptides.
ADSCs were treated with CXCL14-P, CXCL14-P1, or CXCL14-P2, respectively, at a concentration of 10 ng for 24 hours, after which the medium was replaced with fresh peptide-free medium. On day 7, total RNA was extracted, and real-time PCR analysis was performed to assess the expression levels of key chondrogenic markers, including ACAN, COL2A1, SOX9, and COMP. Gene expression levels were quantified using a LightCycler system (Roche Applied Science), with fold changes calculated relative to untreated control ADSCs. […] Immunofluorescence staining was performed to detect Collagen Type II, SOX9, COMP, and nuclei (Hoechst 33342) in 3D ADSC spheroids (middle panel). […]
Human IPFP-MSCs and ADSCs were expanded in Dulbecco's Modified Eagle's Medium (DMEM, Gibco, cat. no 2145484) with 10% FBS under a 37° C., 5% CO2 atmosphere. MSCs collected and cell extractions were determined gene expression levels of cytokines and chondrogenic markers using a LightCycler® (Roche Applied Science). The fold change in gene expression on the y-axis was calculated based on untreated cell gene expression.

ITTKSVSRYRGQEH [CXCL14-P]
expression of chondrogenic genes (COMP, SOX9, COL2A1, ACAN, ITGB1, SOSTDC1) (day 7, peptides compared to CXCL12/CXCL14 proteins, listed as CXCL14 peptide): significantly upregulated; also recorded: greater ability
expression of chondrogenic genes (COMP, SOX9, COL2A1, ACAN, ITGB1) (day 7 of treatment with peptide): significantly upregulated
chondrogenic genes (in the absence of TGF-β): evident
expression of chondrogenic genes ITGB1 and COMP (in the presence of TGF-β, day 7): significantly enhanced
